# Laboratory results: patent US10448639B2, “Fungicidal pyrazoles” (FMC CORPORATION, priority 2009, dated 2019)
# Marks after values point to notes of the source that are not given here.
# Key:
# [1] = tested on: Puccinia recondita f. sp. tritici; test: Test I: wheat leaf rust, preventive spray on wheat seedlings, visual disease rating; conditions: for Test I rating (% disease control) / Test I disease control rating: 100 = 100% disease control; for Test I disease control rating: sprayed the day before inoculation, 0 = no disease control relative to controls; for pest or weed control at 200 µg/mL: 192 h, read-out: Test I rating (% disease control)
# [2] = tested on: Botrytis cinerea; test: Test B: tomato Botrytis, preventive spray on tomato seedlings, visual disease rating; conditions: for Test B rating (% disease control) / Test B disease control rating: 100 = 100% disease control; for Test B disease control rating: 0 = no disease control relative to controls; for pest or weed control at 200 µg/mL: Botrytis cinerea, in Solanum lycopersicum, 120 h, read-out: Test B rating (% disease control)
# [3] = tested on: Septoria tritici; test: Test G: wheat leaf blotch, preventive spray on wheat seedlings, visual disease rating; conditions: for Test G rating (% disease control) / Test G disease control rating: 100 = 100% disease control; for Test G disease control rating: sprayed the day before inoculation, 0 = no disease control relative to controls; for pest or weed control at 200 µg/mL: Zymoseptoria tritici, in Triticum aestivum, 504 h, read-out: Test G rating (% disease control)
# [4] = tested on: Alternaria solani; test: Test C: tomato early blight, preventive spray on tomato seedlings, visual disease rating; conditions: for Test C rating (% disease control) / Test C disease control rating: 100 = 100% disease control; for Test C disease control rating: 0 = no disease control relative to controls; for pest or weed control at 200 µg/mL: Alternaria solani, in Solanum lycopersicum, 168 h, read-out: Test C rating (% disease control)
# [5] = tested on: Erysiphe graminis f sp. tritici; test: Test J: wheat powdery mildew, preventive spray on wheat seedlings, visual disease rating; conditions: for Test J rating (% disease control) / Test J disease control rating: 100 = 100% disease control; for Test J disease control rating: sprayed the day before inoculation, 0 = no disease control relative to controls; for pest or weed control at 200 µg/mL: Blumeria graminis, in Triticum aestivum, 192 h, read-out: Test J rating (% disease control)
# [6] = tested on: Septoria nodorum; test: Test F: Septoria glume blotch, preventive spray on wheat seedlings, visual disease rating; conditions: for Test F rating (% disease control) / Test F disease control rating: 100 = 100% disease control; for Test F disease control rating: 0 = no disease control relative to controls; for pest or weed control at 200 µg/mL: Parastagonospora nodorum, in Triticum aestivum, 192 h, read-out: Test F rating (% disease control)
# [7] = tested on: Puccinia recondita f. sp. tritici; test: Test H: wheat leaf rust, curative spray on inoculated wheat seedlings, visual disease rating; conditions: for Test H rating (% disease control) / Test H disease control rating: 100 = 100% disease control; for Test H disease control rating: sprayed after inoculation, 0 = no disease control relative to controls; for pest or weed control at 200 µg/mL: 144 h, read-out: Test H rating (% disease control)
# [8] = wheat leaf rust, preventive spray, 0 = no control
# [9] = tomato Botrytis, preventive spray, 0 = no control
# [10] = wheat leaf blotch, preventive spray, 0 = no control
# [11] = tomato early blight, preventive spray, 0 = no control
# [12] = wheat powdery mildew, preventive spray, 0 = no control
# [13] = Septoria glume blotch on wheat, preventive spray, 0 = no control
# [14] = wheat leaf rust, curative spray, 0 = no control
compound,measurement,setting,value
Cc1nn(C)c(Nc2ccc(Cl)cc2)c1-c1ccc(F)cc1Cl [compound 19],Test I rating (% disease control),[1]; [8],92%
same,Test B rating (% disease control),[2]; [9],100%
same,Test G rating (% disease control),[3]; [10],96%
same,Test C rating (% disease control),[4]; [11],85%
same,Test J rating (% disease control),[5]; [12],98%
same,Test F rating (% disease control),[6]; [13],0%
same,Test H rating (% disease control),[7]; [14],0%
Cc1nn(C)c(Nc2c(Cl)cc(F)cc2Br)c1-c1ccc(F)cc1F [compound 348],Test I disease control rating,[1]; wheat leaf rust,100%
same,Test B disease control rating,[2]; tomato Botrytis,100%
same,Test G disease control rating,[3]; wheat leaf blotch,100%
same,Test C disease control rating,[4]; tomato early blight,80%
same,Test J disease control rating,[5]; wheat powdery mildew,100%
same,Test F disease control rating,[6]; Septoria glume blotch on wheat,94%
same,Test H disease control rating,[7]; wheat leaf rust,19%
"Cc1nn(C)c(Nc2c(F)cc(F)cc2F)c1-c1ccc(F)cc1Br [Compound 266, 4-(2-bromo-4-fluorophenyl)-1,3-dimethyl-N-(2,4,6-trifluorophenyl)-1H-pyrazol-5-amine]",pest or weed control at 200 µg/mL,[1],100%
same,pest or weed control at 200 µg/mL,[2],100%
same,pest or weed control at 200 µg/mL,[3],100%
same,pest or weed control at 200 µg/mL,[4],100%
same,pest or weed control at 200 µg/mL,[5],100%
same,pest or weed control at 200 µg/mL,[6],98%
same,pest or weed control at 200 µg/mL,[7],0%
COc1cc(F)c(Nc2c(-c3cccc(F)c3F)c(C)nn2C)c(F)c1 [compound 204],"Test I rating (% disease control), marked *","[1]; wheat leaf rust, preventive, rating marked with asterisk (*), meaning not given",86* %
same,"Test B rating (% disease control), marked *","[2]; tomato Botrytis, rating marked with asterisk (*), meaning not given",100* %
same,"Test G rating (% disease control), marked *","[3]; wheat leaf blotch, rating marked with asterisk (*), meaning not given",99* %
same,"Test C rating (% disease control), marked *","[4]; tomato early blight, rating marked with asterisk (*), meaning not given",77* %
same,"Test J rating (% disease control), marked *","[5]; wheat powdery mildew, rating marked with asterisk (*), meaning not given",99* %
same,"Test F rating (% disease control), marked *","[6]; Septoria glume blotch, rating marked with asterisk (*), meaning not given",0* %
same,"Test H rating (% disease control), marked *","[7]; wheat leaf rust, curative, rating marked with asterisk (*), meaning not given",0* %
Cc1nn(C)c(Oc2c(F)cc(C#N)cc2F)c1-c1ccccc1C(F)(F)F [compound 306],Test I disease control rating,[1]; wheat leaf rust,28%
same,Test B disease control rating,[2]; tomato Botrytis,7%
same,Test G disease control rating,[3]; wheat leaf blotch,93%
same,Test C disease control rating,[4]; tomato early blight,0%
same,Test J disease control rating,[5]; wheat powdery mildew,64%
same,Test F disease control rating,[6]; Septoria glume blotch on wheat,0%
same,Test H disease control rating,[7]; wheat leaf rust,0%
Cc1nn(C)c(Oc2c(F)cc(C#N)cc2F)c1-c1ccc(Cl)nc1 [compound 86],Test I rating (% disease control),[1]; [8],0%
same,Test B rating (% disease control),[2]; [9],0%
same,Test G rating (% disease control),[3]; [10],48%
same,Test C rating (% disease control),[4]; [11],0%
same,Test J rating (% disease control),[5]; [12],0%
same,Test F rating (% disease control),[6]; [13],0%
same,Test H rating (% disease control),[7]; [14],0%
Cc1nn(C)c(Nc2c(F)cc(C#N)cc2F)c1-c1c(F)cc(F)cc1F [compound 92],Test I rating (% disease control),[1]; [8],99%
same,Test B rating (% disease control),[2]; [9],100%
same,Test G rating (% disease control),[3]; [10],100%
same,Test C rating (% disease control),[4]; [11],100%
same,Test J rating (% disease control),[5]; [12],100%
same,Test F rating (% disease control),[6]; [13],99%
same,Test H rating (% disease control),[7]; [14],41%
COc1cc(F)c(-c2c(C)nn(C)c2Nc2ccc(F)cc2C)c(F)c1 [compound 88],Test I rating (% disease control),[1]; [8],99%
same,Test B rating (% disease control),[2]; [9],100%
same,Test G rating (% disease control),[3]; [10],98%
same,Test C rating (% disease control),[4]; [11],100%
same,Test J rating (% disease control),[5]; [12],100%
same,Test F rating (% disease control),[6]; [13],99%
same,Test H rating (% disease control),[7]; [14],95%
"COc1cc(F)c(Nc2c(-c3ccc(F)c(F)c3)c(C)nn2C)c(F)c1 [Compound 36, N-(2,6-difluoro-4-methoxyphenyl)-4-(3,4-difluorophenyl)-1,3-dimethyl-1H-pyrazol-5-amine]",pest or weed control at 200 µg/mL,[1],96%
same,pest or weed control at 200 µg/mL,[2],100%
same,pest or weed control at 200 µg/mL,[3],96%
same,pest or weed control at 200 µg/mL,[4],0%
same,pest or weed control at 200 µg/mL,[5],98%
same,pest or weed control at 200 µg/mL,[6],0%
same,pest or weed control at 200 µg/mL,[7],0%
Cc1nn(C)c(Nc2cnc(Cl)nc2)c1-c1ccc(F)cc1Cl [compound 268],Test I rating (% disease control),"[1]; wheat leaf rust, preventive, 0 = no control relative to controls",74%
same,Test B rating (% disease control),"[2]; tomato Botrytis, 0 = no control relative to controls",95%
same,Test G rating (% disease control),"[3]; wheat leaf blotch, 0 = no control relative to controls",99%
same,Test C rating (% disease control),"[4]; tomato early blight, 0 = no control relative to controls",93%
same,Test J rating (% disease control),"[5]; wheat powdery mildew, 0 = no control relative to controls",0%
same,Test F rating (% disease control),"[6]; Septoria glume blotch, 0 = no control relative to controls",0%
same,Test H rating (% disease control),"[7]; wheat leaf rust, curative, 0 = no control relative to controls",0%
